Consider 1 molecule from patent publication US6113907A, “Pharmaceutical grade St. John's Wort” (priority 1997, dated 2000).

Molecules are shown by their SMILES. Like-named read-outs stand apart in the source and are kept apart here.

One experiment deals with T1, serotonin transporter (Rattus norvegicus, UniProt P31652).
T1 construct: Cerebral cortical membranes derived from male Wistar rats; from tissue; host or cells: cerebral cortical membranes of male Wistar rats
Kind of experiment: serotonin transporter assay, [125I]-RTI-121, rat cerebral cortical membranes. It is filed as binding.

The test system of experiment [1] is benzodiazepine receptor (BDZ). The experiment is described as follows: benzodiazepine receptor (BDZ), [3H] PK11195, rat kidney membranes. It is filed as binding. Particulars: 10^-4; 60 min, 100 µM. As to the method: Fourteen additional bioassays were preformed on either extracts, fractions or reference compounds for this botanical. To measure inhibition of [^3 H] PK11195 to the benzodiazepine receptor (BDZ) a partially purified receptor preparation was made from rat kidney membranes. The final radioactive ligand concentration was 1 nM and non-specific binding was measured using 200 nM cold PK11195. The substances, receptor and ligand were reacted in 50 mM Tris-HCL (pH 7.7) at 0-4° C. for 60 minutes. The reaction was terminated by rapid filtration of the samples through glass fiber filters. […] The inhibition of [^3 H] pinrenzepine to the muscarinic M1 receptor (M1) by the substances was measured using a partially purified receptor from bovine striatal membranes. The final hot ligand concentration was 1 nM and non-specific binding was determined in the presence of 100 nM atropine. […] The reactions were terminated by rapid vacuum filtration of the reaction mixture through glass fiber filters. […] To assay for biological activity for the muscarinic receptor for the central nervous system, receptor was partially purified from rat cortical membranes. […] Non-specific binding was determined in the presence of 100 nM atropine. […] Non-specific binding was determined using 1 mM NMDA. […] Non-specific binding was determined using 100 μM AMPA.

Another experiment has as its target T2, MAOA (Rattus norvegicus, UniProt P21396).
T2 sequence (P21396 1-526): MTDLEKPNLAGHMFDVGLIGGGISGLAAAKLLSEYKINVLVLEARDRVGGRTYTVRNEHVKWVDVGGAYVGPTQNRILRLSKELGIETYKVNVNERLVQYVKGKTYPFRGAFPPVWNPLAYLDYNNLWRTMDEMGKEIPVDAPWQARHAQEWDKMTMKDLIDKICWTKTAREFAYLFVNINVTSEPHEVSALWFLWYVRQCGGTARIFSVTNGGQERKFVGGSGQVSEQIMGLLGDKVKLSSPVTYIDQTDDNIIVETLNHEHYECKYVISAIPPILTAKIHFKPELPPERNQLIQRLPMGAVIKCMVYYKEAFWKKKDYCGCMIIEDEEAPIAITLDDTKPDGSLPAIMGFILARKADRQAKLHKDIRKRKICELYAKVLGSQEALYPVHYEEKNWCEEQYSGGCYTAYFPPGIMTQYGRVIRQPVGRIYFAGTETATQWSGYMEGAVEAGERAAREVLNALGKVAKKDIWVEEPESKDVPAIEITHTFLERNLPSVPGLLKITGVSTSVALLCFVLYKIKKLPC
Kind of experiment: NIMH/NovaScreen screen, MAOA. The class given is biochemical.

The test system of the next experiment is MAOB. Kind of experiment: NIMH/NovaScreen screen, MAOB. It is filed as biochemical. Particulars: up to 0.1 mM. As to the method: Through an NIMH screening contract (NovaScreen™, Baltimore, Md.) a commercially available crude extract from the fresh flowers and buds of Hypericum perforatum [1:1.5; hydro-alcohol (40:60) made from flowering tops; Herb Pharm] containing ~0.1% hypericin was dried under vacuum, dissolved in 4% DMSO, and diluted to an initial concentration of 50 mg/ml for in vitro screening in a battery of 39 receptor assays and two enzyme systems (Table 5, below).

The next experiment relates to MAO. The note with it: cited from earlier work.
In another experiment the test system is herpes simplex. Particulars: cited from earlier work.
The next experiment relates to murine cytomegalovirus. Particulars: cited from earlier work.
Another experiment has as its system glioma cells. Particulars: tissue culture; cited from earlier work.
Experiment [2] concerns Receptor tyrosine kinase of epidermal growth factor. The note with it: cited from earlier work.

T1 sequence (P31652 whole entry): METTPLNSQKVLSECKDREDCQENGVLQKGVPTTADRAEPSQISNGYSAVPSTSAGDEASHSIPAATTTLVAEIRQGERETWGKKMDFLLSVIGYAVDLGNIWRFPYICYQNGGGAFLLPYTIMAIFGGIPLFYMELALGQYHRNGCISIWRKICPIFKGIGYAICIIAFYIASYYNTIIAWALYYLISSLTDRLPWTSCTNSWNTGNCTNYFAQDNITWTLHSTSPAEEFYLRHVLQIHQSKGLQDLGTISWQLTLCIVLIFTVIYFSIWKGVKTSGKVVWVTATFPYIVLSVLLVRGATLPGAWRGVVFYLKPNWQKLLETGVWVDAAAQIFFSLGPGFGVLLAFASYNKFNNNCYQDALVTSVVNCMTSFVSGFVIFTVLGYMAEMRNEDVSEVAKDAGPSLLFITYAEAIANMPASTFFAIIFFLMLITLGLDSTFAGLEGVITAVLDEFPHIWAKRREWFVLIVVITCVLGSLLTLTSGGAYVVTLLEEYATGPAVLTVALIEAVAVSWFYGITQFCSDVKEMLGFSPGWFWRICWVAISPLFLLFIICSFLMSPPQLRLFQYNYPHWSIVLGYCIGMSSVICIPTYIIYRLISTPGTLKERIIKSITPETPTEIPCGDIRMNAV

Consider `Cc1cc(O)c2c(=O)c3c(O)cc(O)c4c5c(O)cc(O)c6c(=O)c7c(O)cc(C)c8c1c2c(c34)c(c78)c65` [Hypericin, hypericin], for which the inhibition at 100 µM on serotonin transporter (10^-4, read-out: Sero) stood at 51%; at serotonin transporter (10^-4 M, read-out: Sero % inhibition (PharmaPrint range)), 51 ± 2%; against MAOA (100 μM) it was 20.8%. The IC50 on serotonin transporter (read-out: Sero (concentration)) was found to be 4 µM. Also, the BDZ in [1] was 33%. Moreover, the inhibition at 10 µM against MAOA (10 μM) stood at 27%. Further, at MAOA (up to 0.1 mM), the “MAOA inhibition” value was “lacked significant MAOA or MAO-^B inhibition”. Moreover, the “MAO-B inhibition” value in the experiment with MAOB was “lacked significant MAOA or MAO-^B inhibition”. The “concentration inhibiting MAO” value in the experiment on MAO (Suzuki et al., 80% purity) is 50 µg/mL. For the same molecule, in the experiment with MAO, the “confirmation of MAO inhibition” value was “failed to confirm this effect”. In addition, the “inhibition of herpes simplex” value with herpes simplex is reported as “inhibit”. Further, the “activity against murine cytomegalovirus” value in the experiment with murine cytomegalovirus is reported as “Activity has also been reported”. Also, the “growth of glioma cells” value in the experiment on glioma cells was “inhibit the growth of glioma cells”. The “receptor tyrosine kinase activity of epidermal growth factor” value in experiment [2] is “inhibited”.
